This note sets out measurements from patent US20250136583A1, “NOVEL SALT FORMS OF ISOCHROMAN-IMIDAZOLE STRUCTURED ALPHA-2A ADRENOCEPTOR AGONIST” (ORION CORPORATION, priority 2022, published 2025).

Molecules are shown by their SMILES. Counter-ions that a name gives are not always drawn.

Data set [1] can be described thus: Physical stability of the salts (storage at elevated temperature and relative humidity, re-analysis by XRPD). The format is physicochemical. To be noted: for Form after stability / Physical stability: solids exposed for 2 or 3 weeks at 40° C. and 70-80% relative humidity; for Form after stability: XRPD; for Physical stability: re-analyzed by XRPD. The method, then: XRPD measurements were performed with the X-ray powder diffractometer Bruker D8 Advance at room temperature, using a copper filled X-ray tube (40 kV×40 mA) as the X-ray source, CuKα (λ=1.5418 Å), a 0.6 mm divergence slit, 2.5° Soller slits on both the primary and secondary beams and the 1-dimensional LynxEye detector (with aperture angle of 2.91593°). Data collection was done in the range of 3.8-33° 2θ with 0.02° increments, at a scan speed of 0.3°/s.
A stability test was carried out for all crystalline salt forms resulted from the salt screen by exposing the solids for 2 or 3 weeks at 40° C. and 70-80% relative humidity. After exposure, the solids were re-analyzed by XRPD, followed by physical stability assessment.

Data set [2] in a line: Chemical stability of the salts (stress at 60° C. and 75% relative humidity, purity by UHPLC). It is filed as physicochemical. As for the experimental part: The purity analyses were performed using Agilent UHPLC equipment with PDA/DAD detector at 210 nm wavelength and reverse phase liquid chromatography column Acquity UPLC HSS T3, 100×3.0 mm, 1.8 μm (Waters). The chromatography was performed with gradient run using acetonitrile and phosphate buffer (pH 3.0) as eluents.
The chemical stability of various salts of compound (I) was determined by stressing the salts for 1 and 14 days at 60° C. and 75% relative humidity. The unstressed sample was used as an reference. The purity of the samples were analyzed using UHPLC, and the purity difference between the stressed and reference was calculated.

`COc1cccc2c1CCOC2C1=NCCN1` [L-Glutamic acid salt Form 1, 2-(5-methoxyisochroman-1-yl)-4,5-dihydro-1H-imidazole]: the Form after stability entry in data set [1] is on record as “extra peaks in the XRPD pattern”.
Turning to `COc1cccc2c1CCOC2C1=NCCN1` (stereo not shown) [Cyclamic acid salt Form 2, 2-(5-methoxyisochroman-1-yl)-4,5-dihydro-1H-imidazole], the Form after stability result in data set [1] (listed as cyclamic acid (form 2)) is given as “extra peaks in the XRPD pattern”.
Take `COc1cccc2c1CCOC2C1=NCCN1` (stereo not shown) [Methanesulfonic acid salt Form 1, 2-(5-methoxyisochroman-1-yl)-4,5-dihydro-1H-imidazole]: in data set [1], the Form after stability entry is reported as “Amorphous” and the Physical stability entry was “Unstable”. Moreover, in data set [1] (listed as methanesulfonic acid), the Form after stability result is listed as “turned into amorphous phase”.
Regarding `COc1cccc2c1CCOC2C1=NCCN1` (stereo not shown) [2-Ketoglutaric acid salt Form 1, 2-(5-methoxyisochroman-1-yl)-4,5-dihydro-1H-imidazole], in data set [1], the Form after stability result is recorded as “Amorphous” and the Physical stability entry is “Unstable”. Further, in data set [1] (listed as 2-ketoglutaric acid), the Form after stability entry is reported as “turned into amorphous phase”.
As for `COc1cccc2c1CCOC2C1=NCCN1` [L-Aspartic acid salt Form 1, 2-(5-methoxyisochroman-1-yl)-4,5-dihydro-1H-imidazole], in data set [1], the Form after stability entry was “Form 1 + amorphous” and the Physical stability result is given as “Unstable”. Also, the Form after stability entry in data set [1] (listed as L-aspartic acid) was “an amorphous phase with characteristic peaks of the counter-ion”.
For `COc1cccc2c1CCOC2C1=NCCN1` (racemic) [D,L-Lactic acid salt Form 1, 2-(5-methoxyisochroman-1-yl)-4,5-dihydro-1H-imidazole], in data set [1], the Form after stability result was “Form 2” and the Physical stability entry is “Unstable”. Besides, the Form after stability result in data set [1] (listed as D,L-lactic acid) is reported as “completely”.
As for `COc1cccc2c1CCOC2C1=NCCN1` (stereo not shown) [Saccharin salt Form 1, 2-(5-methoxyisochroman-1-yl)-4,5-dihydro-1H-imidazole], the “Crystalline form conversion on storage” value in data set [1] (40° C., 75% RH for 3 weeks) is “partially conversion into form 2”. Moreover, the Form after stability entry is listed as “Form 1 + Form 2” in data set [1] and “changed partially” in data set [1] (listed as saccharin (form 1)).
With `COc1cccc2c1CCOC2C1=NCCN1` (stereo not shown) [Fumaric acid salt Form 1, 2-(5-methoxyisochroman-1-yl)-4,5-dihydro-1H-imidazole], the Form after stability entry in data set [1] was “Form 1”. Besides, the Physical stability result is recorded as “Stable” in data set [1] and “remained stable” in data set [1] (listed as fumaric acid (form 1)).
Take `COc1cccc2c1CCOC2C1=NCCN1` (stereo not shown) [Saccharin salt, 2-(5-methoxyisochroman-1-yl)-4,5-dihydro-1H-imidazole]: the “Purity (%) of 1 day stress samples” value in data set [2] (1 day at 60° C. and 75% relative humidity, UHPLC) was found to be 95.0%. For the same compound, in data set [2] (1 day at 60° C. and 75% relative humidity, purity difference, in %), the “Difference between reference and 1 day stressed sample” value turned out to be 2.1. Also, in data set [2] (14 days at 60° C. and 75% relative humidity, UHPLC), the “Purity (%) of 14 day stress samples” value is listed as 91.5%. The “Difference between reference and 14 day stressed sample” value in data set [2] (14 days at 60° C. and 75% relative humidity, purity difference, in %) was 5.6. In addition, the “Purity (%) of reference” value in data set [2] (unstressed sample, UHPLC) amounted to 97.1%.
Consider `COc1cccc2c1CCOC2C1=NCCN1` (stereo not shown) [Saccharin salt Form 2, 2-(5-methoxyisochroman-1-yl)-4,5-dihydro-1H-imidazole], for which, in data set [1], the Form after stability entry is listed as “Form 2” and the Physical stability entry was “Stable”. For the same compound, the Physical stability result in data set [1] (listed as saccharin (form 2)) is on record as “remained stable”.
In the case of `COc1cccc2c1CCOC2C1=NCCN1` (stereo not shown) [Cyclamic acid salt Form 1, 2-(5-methoxyisochroman-1-yl)-4,5-dihydro-1H-imidazole], the results for the Form after stability entry in data set [1] and in data set [1] (listed as cyclamic acid (form 1)) were “Form 2” and “completely”, respectively. Besides, in data set [1], the Physical stability entry is “Unstable”.
